Publication PMC5654968 (NPJ Systems Biology and Applications, 2017)
Like-named read-outs stand apart in the source and are kept apart here.

Format: in vivo, rat
Experimental: Distilled water and saline were administered as vehicle to rats in each control group. […] Plasma cytokine levels were measured by ELISA or multiplex immunoassay; common metabolites and lipid mediators were analyzed by GC-MS/MS and LC-MS/MS, respectively.
Pathway maps of lipid mediators were created by using CellDesigner 4.4 software (http://www.celldesigner.org). We evaluated the effects of the treatments on specific lipid mediators and categorized them according to COX, CYP and LOX pathways by Fisher’s exact test. The proinflammatory and anti-inflammatory indices were analyzed as described by Tam et al. with modification.[22]

[1] = PM/P (polyI:C+maoto vs polyI:C), 2h
[2] = PM/P (polyI:C+maoto vs polyI:C), 4h
[3] = first value of an incomplete line, time (2h or 4h) not assignable

Row | Structure (SMILES) | log2FC of plasma level (M/C (maoto vs control), 2h) | log2FC of plasma level (M/C (maoto vs control), 4h) | log2FC of plasma level (P/C (polyI:C vs control), 2h) | log2FC of plasma level (P/C (polyI:C vs control), 4h) | log2FC of plasma level [1] | log2FC of plasma level [2] | log2FC of plasma level | log2FC of plasma level [3]
1 | CCC(O)C(O)C/C=C\C/C=C\C/C=C\C/C=C\CCCC(=O)O (centres unmarked) [17,18-DiHETE] | 0.60 | -0.17 | 0.19 | 0.32 | -0.30 | -0.38 |  | 
2 | CCCCCC(=O)CCC1C(O)CC(O)C1CCC(=O)O (stereo not drawn) [13,14-dihydro-15-keto-tetranor-PGF1β] | 0.11 | 0.40 | 0.93 | 0.27 | 0.11 | -0.01 |  | 
3 | CCCCCC(O)/C=C/C=C\C/C=C\CCCCCCC(=O)O (centres unmarked) [15-HETrE] | 0.77 | 0.00 | 0.20 | 1.11 | 0.25 | -0.98 |  | 
4 | CCCCC/C=C\C/C=C\CC(O)C(O)C/C=C\CCCC(=O)O (centres unmarked) [8,9-DHET] | 0.82 | -0.02 | 0.07 | 0.42 | 0.16 | -0.59 |  | 
5 | CC/C=C\C=C\C(O)C/C=C\C/C=C\C/C=C\C/C=C\CCC(=O)O (centres unmarked) [16-HDoHE] | 0.10 | -0.60 | -0.12 | 0.38 | 0.16 | -0.76 |  | 
6 | CC/C=C\C[C@H](O)/C=C/[C@H]1C(=O)C[C@H](O)[C@@H]1C/C=C\CCCC(=O)O [PGD3] |  |  |  |  |  |  | -0.55 | -0.03
7 | CC/C=C\C/C=C\CC(O)/C=C/C=C\C/C=C\CCCC(=O)O (centres unmarked) [12-HEPE] | 1.09 | -0.37 | -0.06 | 0.02 | 0.67 | -0.27 |  | 
8 | CCCCC[C@H](O)/C=C/[C@H]1[C@H](O)CC(=O)[C@@H]1C/C=C\CCCC(=O)O [PGE2] | -0.31 | 0.22 | 0.59 | 0.59 | -0.15 | 0.22 |  | 
9 | CCCCCC(=O)CCC1C(O)CC(=O)C1CCC(=O)O (centres unmarked) [13,14-dihydro-15-keto-tetranor-PGE2] | 0.05 | -0.80 | 2.37 | 2.09 | -0.40 | -2.03 |  | 
10 | CC/C=C\C/C=C\C=C\C(O)CCCCCCCC(=O)O (centres unmarked) [9-HOTrE] | 0.03 | -0.77 | 0.04 | 0.61 | -0.05 | -1.19 |  | 
11 | CCCCC/C=C\C[C@H](O)/C=C/C=C\C/C=C\CCCC(=O)O [12-HETE] | 1.25 | -0.38 | -0.61 | 0.37 | 1.33 | -0.36 |  | 
12 | CCCCC/C=C\C/C=C\C=C\C(O)C/C=C\CCCC(=O)O (centres unmarked) [8-HETE] | 0.09 | -0.40 | -0.12 | 0.39 | 0.05 | -0.62 |  | 
13 | CCCCCC(O)/C=C/C=C\CCCCCCCC(=O)O (centres unmarked) [13-HODE] | 0.14 | -0.46 | 0.15 | 0.36 | -0.11 | -0.80 |  | 
14 | O=C(O)CCC/C=C\C/C=C\C/C=C\C/C=C\CCCCC(=O)O [20-carboxy-AA] | 0.40 | 0.17 | 0.03 | 0.32 | 0.28 | 0.00 |  | 
15 | CCCCCC(=O)CC[C@H]1[C@H](O)CC(=O)[C@@H]1C/C=C\CCCC(=O)O [13,14-dihydro-15-keto-PGE2] | 0.22 | 0.13 | 1.01 | 0.22 | -0.04 | 0.42 |  | 
16 | CCCCC(O)/C=C\C/C=C\C/C=C\C/C=C\CCCC(=O)O (centres unmarked) [16-HETE] | 0.13 | -0.23 | 0.13 | 0.70 | -0.02 | -0.94 |  | 
17 | CC/C=C\CC(O)/C=C/C=C\C/C=C\C/C=C\CCCC(=O)O (centres unmarked) [15-HEPE] | 0.47 | -0.29 | 0.28 | 0.06 | -0.02 | -0.55 |  | 

Row | Structure (SMILES) | log2FC of plasma level (M/C (maoto vs control), 2h) | log2FC of plasma level (M/C (maoto vs control), 4h) | log2FC of plasma level (P/C (polyI:C vs control), 2h) | log2FC of plasma level (P/C (polyI:C vs control), 4h) | log2FC of plasma level [1] | log2FC of plasma level [2] | log2FC of plasma level | log2FC of plasma level [3]
18 | CCCCCC(=O)CCC1C(O)CC(O)C1CCC(=O)O (stereo not drawn) [13,14-dihydro-15-keto-tetranor-PGF1α] |  |  |  |  |  |  | 0.16 | 0.18
19 | CCCCC[C@H](O)/C=C/[C@@H]1[C@@H](CC(=O)CCCCC(=O)O)[C@@H](O)C[C@H]1O [6-keto-PGF1α] | 0.16 | 0.08 | 1.21 | 0.67 | -0.35 | 0.01 |  | 
20 | CCCCC[C@H](O)/C=C/[C@H]1[C@H](O)CC(=O)[C@H]1C/C=C\CCCC(=O)O [8-iso-PGE2] | -0.45 | -0.43 | -0.13 | 0.77 | -0.23 | -0.98 |  | 
21 | CCCCC/C=C\C/C=C\CC(O)/C=C/C=C\CCCC(=O)O (centres unmarked) [9-HETE] | 0.09 | -0.42 | -0.22 | 0.63 | 0.30 | -1.09 |  | 
22 | CC/C=C\C/C=C\C/C=C\C/C=C\C/C=C\CCCC(=O)O [EPA, eicosapentaenoic acid] | 0.56 | -0.10 | 0.28 | -0.05 | 0.04 | 0.03 |  | 
23 | CCCCC/C=C\C=C\C(O)C/C=C\C/C=C\CCCC(=O)O (centres unmarked) [11-HETE] | 0.15 | -0.41 | 0.23 | 0.38 | 0.04 | -0.66 |  | 
24 | CC/C=C\C/C=C\C/C=C\CC(O)/C=C/C=C\C/C=C\CCC(=O)O (centres unmarked) [11-HDoHE] | 0.35 | -0.42 | 0.05 | 0.13 | 0.03 | -0.58 |  | 
25 | CCCCCC(=O)/C=C/[C@@H]1[C@H](C/C=C\CCCC(=O)O)[C@@H](O)C[C@H]1O [8-iso-15-keto-PGF2α] | -0.41 | -0.68 | -0.16 | 1.04 | -0.14 | -0.99 |  | 
26 | CCCCC/C=C\C/C=C\C/C=C\C=C\[C@@H](O)CCCC(=O)O [5-HETE] | -0.06 | -0.47 | -0.07 | 0.39 | 0.01 | -0.73 |  | 
27 | CC/C=C\C/C=C\CC(O)/C=C/C=C\C/C=C\C/C=C\CCC(=O)O (centres unmarked) [14-HDoHE] | 0.82 | -0.39 | -0.32 | 0.40 | 0.58 | -0.58 |  | 
28 | CCCC(O)C/C=C\C/C=C\C/C=C\C/C=C\CCCC(=O)O (centres unmarked) [17-HETE] | 0.20 | 0.07 | 0.59 | 0.13 | 0.42 | 0.16 |  | 
29 | CCCCCC(=O)CCC1C(=O)CC(O)C1C/C=C\CCCC(=O)O (centres unmarked) [13,14-dihydro-15-keto-PGD2] |  |  |  |  |  |  | -0.34 | 0.70
30 | CCCCC[C@H](O)/C=C/[C@@H]1[C@@H](C/C=C\CCCCCC(=O)O)[C@@H](O)C[C@H]1O [1a1b-dihomo-PGF2α] |  |  |  |  |  |  | 1.56 | 0.80
31 | CC/C=C\C/C=C\C/C=C\C/C=C\CC(O)C(O)CCCC(=O)O (centres unmarked) [5,6-DiHETE] | -0.03 | -0.23 | -0.19 | 0.03 | -0.44 | -0.44 |  | 
32 | CC/C=C\C/C=C\C/C=C\C/C=C\C=C\C(O)C/C=C\CCC(=O)O (centres unmarked) [7-HDoHE] | 0.11 | -0.26 | 0.02 | 0.23 | -0.17 | -0.39 |  | 
33 | CCCCC[C@@H](/C=C/C=C\CCCCCCCC(=O)O)OO [13-HpODE] | 2.37 | -2.47 | 0.75 | 0.25 | -0.76 | -1.63 |  | 
